Each structure is given as a SMILES string. “Also recorded” adds a separate entry of the source. Like-named read-outs stand apart in the source and are kept apart here.

The nature of data set [1]: Solid-state storage stability, form change detected by XRPD. The class given is physicochemical. Conditions: 120 days. The source says:
The samples after storage were detected by XRPD.

The nature of data set [2]: Stability of crystalline forms in water and simulated biological media (saturated solution, XRPD of solid). The class given is physicochemical. Conditions: for Final form: SGF, listed as Crystalline Form A of monophosphate. As for the experimental part: After being equilibrated for 1 hour, 4 hours and 24 hours, a small amount solid of each saturated solution was carried out for XRPD test, the testing result is shown in table 9, and the XRPD contrast diagram after 1 hour is shown in FIG. 9, wherein a is starting form of diphosphonate, b is monophosphate Form B of the present disclosure, c is the crystalline form of the diphosphonate after 1 hour in water, d is the crystalline form of the diphosphonate after 1 hour in SGF, e is the crystalline form of the diphosphonate after 1 hour in the FaSSIF, and f is the crystalline form of the diphosphonate after 1 hour in FeSSIF.

For data set [3] the following is noted: cited from earlier work.
Data set [4] is described as follows: Particle size distribution test (Microtrac S3500 laser particle size analyzer, wet process). The class given is physicochemical. To be noted: for MV (average particle size calculated by volume): dispersion medium Isopar G; for D10 / D50 / D90: volume distribution, Isopar G. Here is the method: The particle size distribution test in the present disclosure is acquired by the S3500 laser particle size analyzer of Microtrac. Microtrac S3500 is equipped with the Sample Delivery Controller. The test is carried out by wet process, and the dispersion medium is Isopar G The parameters are as follow: [table] 10-30 mg sample was dispersed with 10 mL Isopar G (containing 0.2% of lecithin). The sample is added into the SDC sample injection system when fully mixed. Start the experiment when the sample amount indication chart reaches a proper position. The result of particle size distribution test is shown in table 13, the particle size distribution diagram of the Form A is shown in FIG. 10, and the particle size distribution diagram of the Form B of monophosphate is shown in FIG. 11.

Data set [5] in a line: Hygroscopicity assessment by dynamic vapor sorption (DVS). It is filed as physicochemical. To be noted: 25° C.; for Weight Gain at 80% Relative Humidity: DVS, 10 mg. As for the experimental part:
Dynamic Vapor Sorption (DVS) is measured via a SMS (Surface Measurement Systems) DVS Intrinsic, using 10 mg of crystalline form. Typical Parameters for DVS test are listed below: Temperature: 25° C. Gas and flow rate: N2, 200 mL/min dm/dt: 0.002%/min RH range: 0% RH to 95% RH Stable duration: 10 min Maximum equilibrate time: 180 min Humidity gradient: 10%(0% RH-90% RH), 5%(90% RH-95% RH), Hygroscopicity of 10 mg of monophosphate Form A of compound of formula (I) was tested using dynamic vapor sorption (DVS). About hygroscopicity characterization description and definition of hygroscopicity (Chinese Pharmacopoeia 2010 edition appendix XIXJ Drug hygroscopic test guidelines, test at 25° C.+/−1° C., 80% Relative Humidity) • deliquescent: sufficient water is absorbed to form a liquid. • very hygroscopic: increase in mass is equal to or greater than 15%. • hygroscopic: increase in mass is less than 15% and equal to or greater than 2%. • slightly hygroscopic: increase in mass is less than 2% and equal to or greater than 0.2%. • no or almost no hygroscopic: increase in mass is less than 0.2%.

[6] abbreviates: listed as Crystalline Form B of monophosphate.
The mark [7] stands for this setting: listed as Crystalline Form A of monophosphate.

Consider `Cc1c(C(=O)Nc2ccc(N3C[C@@H](C)O[C@@H](C)C3)nc2)cccc1-c1ccc(OC(F)(F)F)cc1.O=P(O)(O)O.O=P(O)(O)O` [Diphosphonate in CN102159570, reference compound], for which the “Form Change” value in data set [1] (5° C.) was “Diphosphonate”; in data set [1] (25° C./60% RH) it was “Diphosphonate”; in data set [1] (40° C./75% RH, listed as diphosphonate in CN102159570), “partly changed into Form B”. In data set [2] (four media, equilibrated for 1 hour), the “form conversion in media” value is reported as “convert into Form B of monophosphate”. The “XRPD of the crystalline form after storage” value in data set [3] (50° C./75% RH, 2 weeks) was “slightly changed”; in data set [3] (80° C./75% RH, two weeks), “changed”.

Turning to `Cc1c(C(=O)Nc2ccc(N3CC(C)OC(C)C3)nc2)cccc1-c1ccc(OC(F)(F)F)cc1` (stereo not drawn) [Form B, N-[6-(cis-2,6-dimethylmorpholine-4-yl)pyridine-3-yl]-2-methyl-4′-(trifluoromethoxy) [1,1′-biphenyl]-3-carboxamide monophosphate], in data set [1] (5° C.), the “Form Change” value is listed as “Form B”. In addition, in data set [1] (25° C./60% RH), the “Form Change” value is on record as “Form B”. In addition, the “Form Change” value in data set [1] (40° C./75% RH) is reported as “remains unchanged; also recorded: Form B”. The “stability of crystalline form in media” value in data set [2] (all of the four kinds of media (water, SGF, FaSSIF, FeSSIF)) is given as “do not change”. For the same compound, the “particle size homogeneity and dispersion” value in data set [4] was “homogeneous particle size and good dispersion”. Also, in data set [4] (setting [6]), the “MV (average particle size calculated by volume)” value was 55.4 um, the D10 is 8.8 um, the D50 worked out at 37.5 um and the D90 is 124.2 um.

Consider `Cc1c(C(=O)Nc2ccc(N3CC(C)OC(C)C3)nc2)cccc1-c1ccc(OC(F)(F)F)cc1` (stereo not drawn) [Form A, N-[6-(cis-2,6-dimethylmorpholine-4-yl)pyridine-3-yl]-2-methyl-4′-(trifluoromethoxy) [1,1′-biphenyl]-3-carboxamide monophosphate], for which the “hygroscopicity class (Chinese Pharmacopoeia 2010 definition)” value in data set [5] (80% Relative Humidity) is “slightly hygroscopic (increase in mass is less than 2% and equal to or greater than 0.2%)”. Also, the “Weight Gain at 80% Relative Humidity” value in data set [5] and in data set [5] (listed as monophosphate Form A) was 0.59% throughout. The “Form Change” value in data set [1] (5° C.) is “Form A”; in data set [1] (25° C./60% RH), “Form A”; in data set [1] (40° C./75% RH), “Form A and Form B”. Further, the Final form entry in data set [2] (equilibrium time 1 h), in data set [2] (equilibrium time 4 h) and in data set [2] (equilibrium time 24 h) was “Changed” each time. The “stability of crystalline form in media” value in data set [2] (water, FaSSIF and FeSSIF, after 1, 4, and 24 hours) was “stable”. Moreover, the “particle size homogeneity and dispersion” value in data set [4] was “homogeneous particle size and good dispersion”. In addition, the “MV (average particle size calculated by volume)” value in data set [4] (setting [7]) is 136.5 um. In data set [4] (setting [7]), this compound came in with a D10 of 22.7 um. This compound gave a D50 in data set [4] (setting [7]) of 100.2 um. For the same compound, in data set [4] (setting [7]), the D90 was determined as 305.2 um.

Values taken from patent US10266523B2, “Crystaline forms of N-[6-(cis-2,6-dimethylmorpholine-4-yl)pyridine-3-yl]-2-Methyl-4′-(trifluoromethoxy) [1,1′-biphenyl]-3-Methanamide monophosphate, and process of preparation thereof” (CRYSTAL PHARMATECH CO., LTD., priority 2015, dated 2019).
